Assay results published in patent US20240109937A1, “BINDING PEPTIDES AND USES THEREOF” (The Johns Hopkins University, priority 2021, published 2024).

Key:
cleaved (75 kDa) CAPN1 = assay: Immunoblot of active CAPN1 in ISO/Ca2+-treated ES-CMs (chronic CAPN1 inhibition); format: cell-based, mouse; details: Dsg2^mut/mut ES-CMs, 7 days 50 μM ISO/1 μM Ca2+, calpeptin pretreatment
Description: (§1) Mouse embryonic stem cells (ESs) were maintained and differentiated, and the absence of mycoplasma contamination was confirmed prior to experimental studies. Briefly, mouse ESs from both WT and Dsg2^mut/mut mice were derived from E3.5 embryos and maintained on gelatin-coated dishes in maintenance medium (Glasgow minimum essential medium supplemented with 10% fetal bovine serum and 3 μM Chir99021 and 1 μM PD98059 or 1000 U/ml ESGRO; Millipore), Glutamax, sodium pyruvate, and MEM non-essential amino acids (Thermo Fisher Scientific). For cardiomyocyte (CM) differentiation, ESs were plated in IMDM/Ham's F12 (Cellgro, at 3:1) supplemented with N2, B27, penicillin/streptomycin, 2 mM GlutaMAX, 0.05% BSA, 5 ng/ml L-ascorbic acid (Sigma-Aldrich), and α-monothioglycerol (MTG; Sigma-Aldrich) at a final density of 100,000 cells/ml to allow spheroid formation. After 48 hours, embryoid bodies were collected and transferred to ultra-low attachment plastic surface and induced for 40 hours with Activin A and Bmp4 (R&D Systems). Cells were then dissociated and plated as monolayers for 48 hours in the presence of 10 μM XAV to allow cardiomyocyte differentiation. The resulting ES-CMs were cultured 45 days before experimental procedures were performed.

[1] = system: truncated AIF (tAIF, 57 kDa); assay: Immunoblot of truncated AIF in ISO/Ca2+-treated ES-CMs (chronic CAPN1 inhibition); format: cell-based, mouse; details: Dsg2^mut/mut ES-CMs, 7 days 50 μM ISO/1 μM Ca2+, calpeptin pretreatment
Description: as §1

CAPN1 = molecular target: T1, CAPN1 (Mus musculus, UniProt O35350); assay: Western blot of CAPN1 in purified mitochondria from HL-1 cells under Ca2+ overload; format: cell-based; details: Ca2+ overload (HBS KVC), calpeptin 50 μM, PD150606 10 μM
T1 construct: endogenous in cells; host or cells: HL-1 cardiomyocytes
T1 sequence (O35350 1-713): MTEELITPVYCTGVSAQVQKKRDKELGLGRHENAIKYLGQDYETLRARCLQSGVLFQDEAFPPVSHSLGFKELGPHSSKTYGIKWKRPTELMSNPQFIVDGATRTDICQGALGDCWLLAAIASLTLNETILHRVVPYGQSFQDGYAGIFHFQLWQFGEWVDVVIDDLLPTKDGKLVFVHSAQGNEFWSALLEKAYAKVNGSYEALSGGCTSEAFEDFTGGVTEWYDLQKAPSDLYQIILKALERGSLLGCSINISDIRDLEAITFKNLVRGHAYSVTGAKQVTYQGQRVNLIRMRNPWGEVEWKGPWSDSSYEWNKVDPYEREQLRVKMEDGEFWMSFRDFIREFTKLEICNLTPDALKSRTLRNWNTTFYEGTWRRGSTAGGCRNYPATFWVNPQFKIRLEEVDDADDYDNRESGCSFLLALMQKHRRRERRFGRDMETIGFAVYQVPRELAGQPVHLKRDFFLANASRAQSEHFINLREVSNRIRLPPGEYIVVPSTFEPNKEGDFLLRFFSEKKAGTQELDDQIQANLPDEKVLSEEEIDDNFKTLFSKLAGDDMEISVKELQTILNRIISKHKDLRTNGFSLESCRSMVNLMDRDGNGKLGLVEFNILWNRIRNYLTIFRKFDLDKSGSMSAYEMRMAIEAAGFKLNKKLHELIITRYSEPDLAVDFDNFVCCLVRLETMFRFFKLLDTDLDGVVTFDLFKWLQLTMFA
T1 sequence (O88456 1-268 partner): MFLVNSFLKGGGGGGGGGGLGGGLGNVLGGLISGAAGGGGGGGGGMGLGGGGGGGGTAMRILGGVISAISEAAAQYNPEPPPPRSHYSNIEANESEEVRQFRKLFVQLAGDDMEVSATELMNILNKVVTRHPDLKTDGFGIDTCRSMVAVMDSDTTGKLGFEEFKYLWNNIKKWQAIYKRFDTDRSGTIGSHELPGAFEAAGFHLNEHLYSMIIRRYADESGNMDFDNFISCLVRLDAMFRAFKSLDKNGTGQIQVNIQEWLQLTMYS
Description: Calcium (Ca^2+) Overload Protocol: Rapid and sustained intracellular Ca^2+ overload was obtained by adding the Ca^2+-ionophore, calcimycin (1 μM), to HL-1 cells incubated for 10 min in HBS KV medium (1.26 mM CaCl2, 0.81 mM MgSO4, 0.44 mM KH2PO4, 142 mM KCl, 0.27 mM K2HPO4, 5.55 mM D-glucose, 1 mM Na3VO4, 20 mM Hepes pH 7.4). To monitor intracellular Ca^2+ variations, HL-1 cells were loaded with 5 μM Fluo-4 FF AM (Molecular Probes) in HBS Na (Sigma) for 30 min before the media was replaced with HBS KV. The fluorescence was recorded using a fluorimeter plate reader (Fluoroskan Ascent Labsystem) at wavelength settings of 485/530 nm for excitation/emission, respectively.
Mitochondria Isolation Protocol: Mitochondria were isolated from HL-1 cells in percoll density gradient. Briefly, 30×10^6 adherent cells were harvested with Trypsin/EDTA, centrifuged at 500×g for 10 min, washed in buffer A (100 mM sucrose, 1 mM EGTA, 20 mM MOPS, pH 7.4, and 1 mg/mL BSA) before cell disruption with a Dounce homogenizer. The suspension was centrifuged twice at 500× g for 5 min and the resulting supernatant at 10,000×g for 10 min at 4° C. The pellet was re-suspended in buffer B (300 mM sucrose, 1 mM EGTA, 20 mM MOPS pH 7.4, 1 mg/mL BSA), and the homogenate was layered on a two-phase (25% and 40%) percoll density gradient. […]

Structure (SMILES): CCCC[C@@H](C=O)NC(=O)[C@H](CC(C)C)NC(=O)OCc1ccccc1 [calpeptin]
- levels of cleaved (75 kDa) CAPN1 (cleaved (75 kDa) CAPN1): significantly lowered
- levels of tAIF (57 kDa) [1]: significantly lowered
- mitochondrial CAPN1 translocation (CAPN1): failed to prevent
